Results from patent US10653651B2, “Kit for treating cancer with low molecular weight components of aurin tricarboxylic acid complex” (Aurin Biotech Inc., priority 2014, dated 2020).
Where two headings read alike, the source gives them in different places.

How the values were obtained:
[1] = system: human colorectal cancer cell line SW 480; assay: SW 480 cell growth in zymosan-activated human serum (MTT cell viability); assay type: cell-based; conditions: 15% human serum, n=4, read-out: IC50, inhibition of SW 480 cell growth induced by zymosan-activated human serum complement
Method: (§1) Experiment 1 was designed to determine the effect of ATA, AHA, AQA and ATAC on U251 cell growth in the presence of complement activated human serum. In Experiment 1(a), U251 cells were treated with various concentrations of human serum (1, 5, 7.5, 10, 12.5, 15%) in DMEM and incubated with 1 μg/mL zymosan at 37° C. for 72 h. Control U251 cells (CON) were incubated in fresh DMEM only. As a further control U251 cells were treated with 10% human serum heated at 56° C. for 30 min to heat inactivate complement (HIS) before incubation with 1 μg/ml zymosan. In Experiment 1(b), U251 cells were treated with various concentrations of ATAC, ATA, AQA and AHA (0.1, 1, 5, 10, 30, 50 μM) in DMEM with 15% human serum and incubated with 1 μg/mL zymosan at 37 ° C. for 72 h. In both Experiments 1(a) and 1(b), following incubation, cell viability was evaluated by MTT (3-[4,5-dimethylthiazol-2-yl]-2,5 diphenyl tetrazolium bromide) assays by adding MTT to the cell cultures to reach a final concentration of 1 mg/mL. Following a 1 h incubation at 37° C., the dark crystals formed were dissolved by adding a SDS/DMF extraction buffer (300 μL, 20% sodium dodecyl sulfate, 50% N,N-dimethylformamide, pH 4.7). Plates were subsequently incubated overnight at 37° C. and optical densities at 570 nm were measured by transferring 100 μL aliquots to 96-well plates and using a plate reader with a corresponding filter.
(§2) Experiment 23 was designed to determine the effect of ATA, AQA, 15 AHA and ATAC on growth of the human colorectal cancer cell line SW 480. The protocol was identical to that used in Experiment 15(b) except that human colorectal cancer SW480 cells were utilized. Experiment 24 was designed to determine if apoptotic death of human carcinoma SW 480 cells was induced by ATA, AQA, AHA, and ATAC as determined by the release of lactic dehydrogenase into the cell medium. The protocol was identical to that used in Experiment 15(d) except that human carcinoma SW480 cells were used and the growth medium was DMEM.

[2] = system: human bone osteosarcoma MNNG cells; assay: Lactic dehydrogenase release from MNNG cells; assay type: cell-based; conditions: n=4, read-out: IC50, lactate dehydrogenase release from MNNG cells
Method: (§3) Experiment 4 was designed to confirm apoptotic cell death of U251 cells induced by ATA, AQA, AHA, and ATAC by measuring release of lactic dehydrogenase into the cell medium. For serum lactate dehydrogenase determination, reaction supernatants ([…]) were pipetted into the wells of 96-well plates, followed by the addition of […] lactate solution (36 mg/mL in PBS) and […] INT (iodonitrotetrazolium chloride, 2-(4-iodophenyl)-3-(4-nitrophenyl)-5-phenyl-2H-tetrazolium chloride) solution (2 mg/mL in PBS). The enzymatic reaction was started by addition of […] of NAD^+/diaphorase solution (3 mg/mL NAD^+; 2.3 mg solid/mL diaphorase). After 1 h, optical densities were measured with a microplate reader using a 490 nm filter. The amount of LDH released was expressed as a percentage of the value obtained in comparative cells where cells were 100% lysed by 1% Triton X-100.
Experiment 22 was designed to determine if apoptotic death of human bone osteosarcoma MNNG cells was induced by ATA, AQA, AHA, and ATAC as determined by the release of lactic dehydrogenase into the cell medium. The protocol was identical to that used in Experiment 19(d) except that human bone osteosarcoma MNNG cells were used.

[3] = system: colorectal adenocarcinoma LS180 cells; assay: Lactic dehydrogenase release from LS180 cells; assay type: cell-based, human; conditions: n=4, read-out: IC50, lactate dehydrogenase release from LS180 cells
Method: as §3
Experiment 20 was designed to determine if apoptotic death of colorectal adenocarcinoma LS180 cells was induced by ATA, AQA, AHA, and ATAC as determined by the release of lactic dehydrogenase into the cell medium. The protocol was identical to that used in Experiment 18(b) except that colorectal adenocarcinoma cells were used.

[4] = system: BT 474 human breast cancer cell line; assay: BT 474 cell growth in zymosan-activated human serum (MTT cell viability); assay type: cell-based; conditions: BT 474 cells, 15% human serum, n=4, read-out: IC50, inhibition of BT 474 cell growth induced by zymosan-activated human serum complement
Method: as §1
Experiment 13 was designed to determine the effect of ATA, AQA, AHA and ATAC on BT 474 cell growth. The protocol was identical to that used in Experiment 1(b) except BT 474 cells were used.

[5] = system: DOHH2 human B-cell carcinoma cell line; assay: DOHH2 cell growth in zymosan-activated human serum (MTT cell viability); assay type: cell-based; conditions: 15% human serum, n=4, read-out: IC50, inhibition of DOHH2 cell growth induced by zymosan-activated human serum complement
Method: as §1
Experiment 15 was designed to determine the effect of ATA, AQA, 15 AHA and ATAC on DOHH2 human B-cell carcinoma cell growth. The protocol was identical to that used in Experiment 9(b) except DOHH2 human B-cell carcinoma cells were used.

[6] = system: human carcinoma SW 480 cells; assay: Lactic dehydrogenase release from SW 480 cells; assay type: cell-based; conditions: n=4, read-out: IC50, lactate dehydrogenase release from SW 480 cells
Method: as §3, §2

A549 cells = assay: Lactic dehydrogenase release from A549 cells; assay type: cell-based, human; conditions: n=4, read-out: IC50, lactate dehydrogenase release from A549 cells
Method: as §3
Experiment 8 was designed to confirm apoptotic cell death of BxPC-3 cells induced by ATA, AQA, AHA, and ATAC by the release of lactic dehydrogenase into the cell medium.
Experiment 12 was designed to confirm apoptotic cell death of A549 cells induced by ATA, AQA, AHA, and ATAC by the release of lactic dehydrogenase into the cell medium. The protocol was identical to that used in Experiment 8 except A549 cells were used.

[7] = system: BxPC-3 human pancreatic adenocarcinoma cell line; assay: BxPC-3 cell growth in zymosan-activated human serum (MTT cell viability); assay type: cell-based; conditions: BxPC-3 cells, RPMI 1640, 15% human serum, 1 μg/mL zymosan, 72 h, n=4, read-out: IC50, inhibition of BxPC-3 cell growth induced by zymosan-activated human serum complement
Method: as §1
Experiment 5 was designed to determine the effect of ATA, AHA, AQA and ATAC on BxPC-3 cell growth in the presence of complement activated human serum.

[8] = system: K562 human chronic myelogenous leukemia cell line; assay: K562 cell growth in zymosan-activated human serum (MTT cell viability); assay type: cell-based
Method: as §1
Experiment 17 was designed to determine the effect of ATA, AQA, AHA and ATAC on K562 human chronic myelogenous leukemia cell growth. The protocol was identical to that used in Experiment 15(b) except that K562 human chronic myelogenous were utilized and the growth medium was Iscove's.

[9] = K562 cells, Iscove's medium, 15% human serum, zymosan, MTT, n=4, read-out: IC50, inhibition of K562 cell growth induced by zymosan-activated human serum complement

Row | IC50 ([1]; SW 480 cells) | IC50 [2] | IC50 [3] | IC50 [4] | IC50 ([5]; DOHH2 cells) | IC50 ([6]; DMEM) | IC50 (A549 cells) | IC50 [7] | IC50 [8, 9] | Molecule | IC50 ([1]; SW480, SW 480 cells) | IC50 ([2]; Homo sapiens) | IC50 ([3]; Homo sapiens) | IC50 ([5]; DOHH-2, DOHH2 cells) | IC50 ([6]; Homo sapiens, SW480, DMEM) | IC50 (A549 cells; Homo sapiens) | IC50 ([8]; Homo sapiens, K562, read-out: IC50, inhibition of K562 cell growth induced by zymosan-activated human serum complement)
1 | 6.8 µM | 6.6 µM | 5 µM | 5.8 µM | 4.9 µM | 4.9 µM | 7.6 µM | 6.8 µM | 4.6 µM | aurin hexacarboxylic acid [AHA] | – | – | – | – | – | – | –
2 | 7 µM | 6.4 µM | 5.1 µM | 6 µM | 5 µM | 4.6 µM | 7.4 µM | 6.7 µM | 4.7 µM | aurin quadracarboxylic acid [AQA] | – | – | – | – | – | – | –

Row | Molecule | IC50 ([1]; SW 480 cells) | IC50 [2] | IC50 [3] | IC50 [4] | IC50 ([5]; DOHH2 cells) | IC50 ([6]; DMEM) | IC50 (A549 cells) | IC50 [7] | IC50 [8, 9] | IC50 ([1]; SW480, SW 480 cells) | IC50 ([2]; Homo sapiens) | IC50 ([3]; Homo sapiens) | IC50 ([5]; DOHH-2, DOHH2 cells) | IC50 ([6]; Homo sapiens, SW480, DMEM) | IC50 (A549 cells; Homo sapiens) | IC50 ([8]; Homo sapiens, K562, read-out: IC50, inhibition of K562 cell growth induced by zymosan-activated human serum complement)
3 | O=C(O)C1=CC(=C(c2ccc(O)c(C(=O)O)c2)c2ccc(O)c(C(=O)O)c2)C=CC1=O [ATA, aurin tricarboxylic acid] | – | – | – | 5.9 µM | – | – | – | 6.5 µM | – | 7 µM | 6.5 µM | 4.9 µM | 5.1 µM | 4.7 µM | 7.5 µM | 4.5 µM
